What was measured:
Format in all cases: binding
[1] = molecular target: kinases (KINOMEscan panel) (Homo sapiens, UniProt Q15375); details: EPHA7; NEW KINOMEscan
[2] = molecular target: kinases (KINOMEscan panel) (Homo sapiens, UniProt P00519, F317L); details: NEW KINOMEscan; for KINOMEscan ABL1(F317L)-phosphorylated: kinase ABL1(F317L)-phosphorylated
[3] = molecular target: T1, kinases (KINOMEscan panel) (Homo sapiens, UniProt O15111)
T1 sequence (O15111 1-745): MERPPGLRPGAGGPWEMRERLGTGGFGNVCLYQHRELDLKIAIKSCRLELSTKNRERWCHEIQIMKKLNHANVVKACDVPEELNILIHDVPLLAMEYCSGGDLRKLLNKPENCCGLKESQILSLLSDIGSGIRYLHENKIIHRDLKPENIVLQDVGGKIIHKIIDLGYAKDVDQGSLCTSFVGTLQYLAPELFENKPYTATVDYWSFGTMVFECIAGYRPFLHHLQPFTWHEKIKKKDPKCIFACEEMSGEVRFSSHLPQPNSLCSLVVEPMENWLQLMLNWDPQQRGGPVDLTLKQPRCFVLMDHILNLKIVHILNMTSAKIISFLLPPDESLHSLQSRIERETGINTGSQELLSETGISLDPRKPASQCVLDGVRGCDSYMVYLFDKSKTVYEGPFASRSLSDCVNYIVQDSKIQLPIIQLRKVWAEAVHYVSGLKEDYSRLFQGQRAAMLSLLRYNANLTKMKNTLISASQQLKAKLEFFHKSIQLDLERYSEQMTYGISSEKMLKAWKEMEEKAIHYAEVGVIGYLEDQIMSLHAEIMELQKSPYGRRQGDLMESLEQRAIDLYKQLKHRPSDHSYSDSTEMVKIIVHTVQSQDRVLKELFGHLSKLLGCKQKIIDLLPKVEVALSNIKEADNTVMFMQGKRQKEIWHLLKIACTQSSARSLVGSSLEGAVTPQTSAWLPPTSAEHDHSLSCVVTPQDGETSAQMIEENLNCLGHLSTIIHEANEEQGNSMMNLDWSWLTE

[4] = molecular target: kinases (KINOMEscan panel) (Homo sapiens, UniProt Q16584); details: kinase MAP3K11; NEW KINOMEscan
[5] = molecular target: kinases (KINOMEscan panel) (Homo sapiens, UniProt P51451); details: kinase BLK; NEW KINOMEscan
kinases (KINOMEscan panel) (Homo sapiens, UniProt P51451), sequence (P51451 whole entry): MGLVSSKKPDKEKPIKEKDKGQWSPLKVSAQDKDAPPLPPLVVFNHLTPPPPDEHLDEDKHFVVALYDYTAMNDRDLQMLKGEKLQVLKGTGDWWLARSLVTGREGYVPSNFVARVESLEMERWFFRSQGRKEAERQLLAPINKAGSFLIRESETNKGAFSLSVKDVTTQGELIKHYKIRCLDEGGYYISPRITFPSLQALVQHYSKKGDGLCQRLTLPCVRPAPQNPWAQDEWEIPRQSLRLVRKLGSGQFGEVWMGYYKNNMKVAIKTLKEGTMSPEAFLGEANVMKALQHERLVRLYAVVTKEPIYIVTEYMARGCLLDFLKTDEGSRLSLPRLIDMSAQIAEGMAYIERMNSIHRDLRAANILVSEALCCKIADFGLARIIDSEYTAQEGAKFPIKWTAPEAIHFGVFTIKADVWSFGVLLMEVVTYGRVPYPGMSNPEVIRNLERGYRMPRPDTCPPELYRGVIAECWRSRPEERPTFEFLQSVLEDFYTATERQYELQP

[6] = molecular target: T2, kinases (KINOMEscan panel) (Homo sapiens, UniProt Q8WXR4); details: MYO3B; NEW KINOMEscan
T2 sequence (Q8WXR4 1-1341): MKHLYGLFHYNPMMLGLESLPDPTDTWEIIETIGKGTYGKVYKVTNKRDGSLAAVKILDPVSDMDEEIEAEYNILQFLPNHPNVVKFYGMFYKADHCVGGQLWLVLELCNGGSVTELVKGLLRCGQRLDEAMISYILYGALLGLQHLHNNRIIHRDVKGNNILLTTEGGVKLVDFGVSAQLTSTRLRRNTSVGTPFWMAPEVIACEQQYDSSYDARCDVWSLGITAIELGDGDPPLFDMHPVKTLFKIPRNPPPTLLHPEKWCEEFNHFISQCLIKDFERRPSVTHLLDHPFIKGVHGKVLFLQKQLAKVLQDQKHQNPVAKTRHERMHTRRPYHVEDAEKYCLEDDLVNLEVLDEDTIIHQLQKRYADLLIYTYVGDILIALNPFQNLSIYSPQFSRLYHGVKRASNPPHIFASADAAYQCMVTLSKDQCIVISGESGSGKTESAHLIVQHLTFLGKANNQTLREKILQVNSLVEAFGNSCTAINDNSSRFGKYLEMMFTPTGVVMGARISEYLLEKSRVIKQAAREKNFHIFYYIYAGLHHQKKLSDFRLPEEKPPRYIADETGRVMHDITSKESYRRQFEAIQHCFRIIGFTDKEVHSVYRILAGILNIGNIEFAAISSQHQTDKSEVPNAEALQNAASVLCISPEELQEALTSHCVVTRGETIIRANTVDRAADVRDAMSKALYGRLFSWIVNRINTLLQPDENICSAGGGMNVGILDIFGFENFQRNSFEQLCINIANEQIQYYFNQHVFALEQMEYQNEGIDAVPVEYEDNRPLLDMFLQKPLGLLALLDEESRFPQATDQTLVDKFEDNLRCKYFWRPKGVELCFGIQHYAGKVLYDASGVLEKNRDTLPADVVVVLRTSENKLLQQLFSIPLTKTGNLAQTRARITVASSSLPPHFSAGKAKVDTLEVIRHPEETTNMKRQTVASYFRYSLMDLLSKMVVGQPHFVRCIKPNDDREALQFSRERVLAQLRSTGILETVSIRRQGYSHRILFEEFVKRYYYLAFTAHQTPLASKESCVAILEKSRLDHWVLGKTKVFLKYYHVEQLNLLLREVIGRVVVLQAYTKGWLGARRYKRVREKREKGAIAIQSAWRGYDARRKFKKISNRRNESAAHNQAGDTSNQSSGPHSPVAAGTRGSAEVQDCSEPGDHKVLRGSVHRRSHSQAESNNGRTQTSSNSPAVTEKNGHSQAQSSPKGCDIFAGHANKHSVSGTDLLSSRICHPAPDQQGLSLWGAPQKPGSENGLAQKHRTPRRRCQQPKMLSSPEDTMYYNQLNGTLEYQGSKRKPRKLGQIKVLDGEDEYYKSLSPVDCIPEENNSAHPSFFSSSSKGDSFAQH

[7] = molecular target: kinases (KINOMEscan panel) (Homo sapiens, UniProt P36888, D835H); details: kinase FLT3(D835H); NEW KINOMEscan
[8] = molecular target: kinases (KINOMEscan panel) (Homo sapiens, UniProt Q9HBH9); details: MKNK2; NEW KINOMEscan
kinases (KINOMEscan panel) (Homo sapiens, UniProt Q9HBH9), sequence (Q9HBH9 whole entry): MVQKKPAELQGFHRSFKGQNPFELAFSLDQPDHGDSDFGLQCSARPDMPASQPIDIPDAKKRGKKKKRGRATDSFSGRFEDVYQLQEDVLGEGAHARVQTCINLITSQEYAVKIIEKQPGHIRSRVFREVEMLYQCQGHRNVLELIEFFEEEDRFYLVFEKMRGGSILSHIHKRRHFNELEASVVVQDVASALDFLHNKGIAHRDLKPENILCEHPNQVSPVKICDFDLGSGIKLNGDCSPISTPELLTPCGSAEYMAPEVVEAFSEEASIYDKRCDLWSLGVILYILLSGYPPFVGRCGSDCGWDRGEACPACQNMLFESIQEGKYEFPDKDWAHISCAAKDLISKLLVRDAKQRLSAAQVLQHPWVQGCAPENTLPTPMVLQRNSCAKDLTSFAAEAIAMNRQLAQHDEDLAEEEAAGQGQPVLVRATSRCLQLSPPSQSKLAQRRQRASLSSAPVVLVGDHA

[9] = molecular target: kinases (KINOMEscan panel) (Homo sapiens, UniProt P07949, M918T); details: NEW KINOMEscan
[10] = molecular target: kinases (KINOMEscan panel) (Homo sapiens, UniProt Q13464); details: ROCK1; NEW KINOMEscan
kinases (KINOMEscan panel) (Homo sapiens, UniProt Q13464), sequence (Q13464 whole entry): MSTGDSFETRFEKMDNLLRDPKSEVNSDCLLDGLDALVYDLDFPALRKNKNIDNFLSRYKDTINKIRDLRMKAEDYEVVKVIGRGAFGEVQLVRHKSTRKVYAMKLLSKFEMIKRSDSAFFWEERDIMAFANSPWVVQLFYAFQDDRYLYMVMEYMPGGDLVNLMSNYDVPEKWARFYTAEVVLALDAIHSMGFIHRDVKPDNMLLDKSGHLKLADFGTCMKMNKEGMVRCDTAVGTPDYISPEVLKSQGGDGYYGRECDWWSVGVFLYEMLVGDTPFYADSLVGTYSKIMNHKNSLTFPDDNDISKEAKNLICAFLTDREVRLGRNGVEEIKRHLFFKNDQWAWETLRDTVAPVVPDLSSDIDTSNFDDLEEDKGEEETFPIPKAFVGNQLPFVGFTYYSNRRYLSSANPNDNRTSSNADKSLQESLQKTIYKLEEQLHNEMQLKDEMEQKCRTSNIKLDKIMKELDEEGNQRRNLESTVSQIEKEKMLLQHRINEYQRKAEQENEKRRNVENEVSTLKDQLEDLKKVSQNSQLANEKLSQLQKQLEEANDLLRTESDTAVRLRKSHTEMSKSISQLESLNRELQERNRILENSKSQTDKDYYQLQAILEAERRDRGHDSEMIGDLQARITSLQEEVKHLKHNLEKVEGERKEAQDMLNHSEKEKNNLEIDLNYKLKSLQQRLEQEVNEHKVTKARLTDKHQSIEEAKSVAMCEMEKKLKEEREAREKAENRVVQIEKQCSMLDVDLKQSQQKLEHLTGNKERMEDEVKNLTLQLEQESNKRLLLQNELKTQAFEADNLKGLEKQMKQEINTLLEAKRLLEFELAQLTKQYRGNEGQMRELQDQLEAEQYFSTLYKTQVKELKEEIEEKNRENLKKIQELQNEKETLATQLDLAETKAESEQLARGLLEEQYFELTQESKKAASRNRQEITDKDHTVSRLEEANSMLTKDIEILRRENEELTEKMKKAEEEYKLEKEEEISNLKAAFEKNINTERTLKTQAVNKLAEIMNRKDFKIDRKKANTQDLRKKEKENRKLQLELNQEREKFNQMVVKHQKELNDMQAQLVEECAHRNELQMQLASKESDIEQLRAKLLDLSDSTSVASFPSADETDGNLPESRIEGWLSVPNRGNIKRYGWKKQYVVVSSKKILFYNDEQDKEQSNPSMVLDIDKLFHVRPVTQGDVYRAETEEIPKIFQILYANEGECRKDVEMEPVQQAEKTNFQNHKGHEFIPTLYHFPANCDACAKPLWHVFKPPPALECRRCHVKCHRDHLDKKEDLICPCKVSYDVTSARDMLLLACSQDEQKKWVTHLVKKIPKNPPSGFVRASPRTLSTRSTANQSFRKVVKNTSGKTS

[11] = molecular target: kinases (KINOMEscan panel) (Plasmodium falciparum, UniProt P61075); details: PFPK5(P.falciparum); NEW KINOMEscan
kinases (KINOMEscan panel) (Plasmodium falciparum, UniProt P61075), sequence (P61075 whole entry): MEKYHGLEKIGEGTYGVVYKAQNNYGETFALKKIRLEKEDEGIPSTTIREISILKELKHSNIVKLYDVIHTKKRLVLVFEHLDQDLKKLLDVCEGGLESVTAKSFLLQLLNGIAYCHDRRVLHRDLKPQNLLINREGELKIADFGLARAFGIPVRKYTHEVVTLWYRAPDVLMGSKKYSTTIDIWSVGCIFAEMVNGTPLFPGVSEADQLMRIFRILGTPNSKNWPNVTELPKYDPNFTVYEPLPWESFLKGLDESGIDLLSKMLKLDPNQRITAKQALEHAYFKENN

[12] = molecular target: kinases (KINOMEscan panel) (Homo sapiens, UniProt Q00537); details: kinase CDK17; NEW KINOMEscan
[13] = molecular target: kinases (KINOMEscan panel) (Homo sapiens, UniProt Q9H2X6); details: NEW KINOMEscan

kinases (KINOMEscan panel) (Homo sapiens, UniProt P00519, F317L), sequence (P00519 whole entry F317L): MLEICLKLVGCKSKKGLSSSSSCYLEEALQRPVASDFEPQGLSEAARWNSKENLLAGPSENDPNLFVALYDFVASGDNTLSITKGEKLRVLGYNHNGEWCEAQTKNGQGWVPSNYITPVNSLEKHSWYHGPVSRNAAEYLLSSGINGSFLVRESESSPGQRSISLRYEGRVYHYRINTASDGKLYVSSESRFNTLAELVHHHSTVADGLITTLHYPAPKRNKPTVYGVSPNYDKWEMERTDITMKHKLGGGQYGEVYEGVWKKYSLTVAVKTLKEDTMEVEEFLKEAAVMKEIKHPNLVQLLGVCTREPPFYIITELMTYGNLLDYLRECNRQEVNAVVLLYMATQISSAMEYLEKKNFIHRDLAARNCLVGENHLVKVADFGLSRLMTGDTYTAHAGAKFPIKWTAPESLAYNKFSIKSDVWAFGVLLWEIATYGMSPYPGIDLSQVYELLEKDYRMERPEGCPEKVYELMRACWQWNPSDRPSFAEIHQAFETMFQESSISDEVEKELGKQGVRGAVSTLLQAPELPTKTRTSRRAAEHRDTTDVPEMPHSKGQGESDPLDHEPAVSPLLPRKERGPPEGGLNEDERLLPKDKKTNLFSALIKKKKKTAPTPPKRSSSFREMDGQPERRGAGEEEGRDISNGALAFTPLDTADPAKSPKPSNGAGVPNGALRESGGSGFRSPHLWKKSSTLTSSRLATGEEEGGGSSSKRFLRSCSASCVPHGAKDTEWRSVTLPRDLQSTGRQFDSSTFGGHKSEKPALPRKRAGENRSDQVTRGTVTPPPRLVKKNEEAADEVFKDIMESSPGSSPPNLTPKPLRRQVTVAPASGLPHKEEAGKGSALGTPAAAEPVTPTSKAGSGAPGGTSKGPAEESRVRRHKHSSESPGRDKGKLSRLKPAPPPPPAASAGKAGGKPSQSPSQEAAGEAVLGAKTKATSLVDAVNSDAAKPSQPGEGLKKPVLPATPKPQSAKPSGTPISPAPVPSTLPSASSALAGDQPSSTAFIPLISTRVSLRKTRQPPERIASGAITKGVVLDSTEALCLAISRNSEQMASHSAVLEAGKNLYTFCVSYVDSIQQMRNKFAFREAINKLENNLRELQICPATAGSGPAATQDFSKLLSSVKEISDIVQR
kinases (KINOMEscan panel) (Homo sapiens, UniProt Q15375), sequence (Q15375 28-998): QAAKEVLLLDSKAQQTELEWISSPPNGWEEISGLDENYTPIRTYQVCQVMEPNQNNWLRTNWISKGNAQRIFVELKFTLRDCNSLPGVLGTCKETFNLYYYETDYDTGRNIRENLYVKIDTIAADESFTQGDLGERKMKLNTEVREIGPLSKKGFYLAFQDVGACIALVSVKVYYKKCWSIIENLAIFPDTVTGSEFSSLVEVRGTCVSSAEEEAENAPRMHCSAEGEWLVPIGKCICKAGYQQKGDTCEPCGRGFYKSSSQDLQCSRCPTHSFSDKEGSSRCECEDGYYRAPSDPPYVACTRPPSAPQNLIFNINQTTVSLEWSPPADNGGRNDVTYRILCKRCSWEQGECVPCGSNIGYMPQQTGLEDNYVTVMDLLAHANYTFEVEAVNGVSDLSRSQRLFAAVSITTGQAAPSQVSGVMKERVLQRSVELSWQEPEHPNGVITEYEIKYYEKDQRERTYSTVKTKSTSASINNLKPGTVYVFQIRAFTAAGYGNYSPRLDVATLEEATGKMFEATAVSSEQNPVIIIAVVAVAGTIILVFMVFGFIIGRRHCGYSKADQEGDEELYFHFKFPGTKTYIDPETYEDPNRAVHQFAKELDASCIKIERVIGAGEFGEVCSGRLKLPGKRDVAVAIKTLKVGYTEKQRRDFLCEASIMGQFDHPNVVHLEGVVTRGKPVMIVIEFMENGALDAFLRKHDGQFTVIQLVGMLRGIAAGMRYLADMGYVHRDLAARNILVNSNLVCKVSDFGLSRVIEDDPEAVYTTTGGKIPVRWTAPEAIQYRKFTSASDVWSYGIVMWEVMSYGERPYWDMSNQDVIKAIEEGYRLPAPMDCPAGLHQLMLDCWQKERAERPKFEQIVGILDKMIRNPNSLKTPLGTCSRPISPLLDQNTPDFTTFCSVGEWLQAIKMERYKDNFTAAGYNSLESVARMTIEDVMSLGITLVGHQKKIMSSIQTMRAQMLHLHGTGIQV

Cc1cccc(-c2nc(Nc3ccc4nn(C)cc4c3)c3ccccc3n2)n1 [NK167]
KINOMEscan EPHA7 [1]: 0 | KINOMEscan ABL1(F317L)-nonphosphorylated [2]: 30 | KINOMEscan ABL1(F317L)-phosphorylated [2]: 0 | KINOMEscan CHUK/IKK-alpha [3]: 0 | KINOMEscan MAP3K11 [4]: 0 | KINOMEscan BLK [5]: 0 | KINOMEscan MYO3B [6]: 0 | KINOMEscan FLT3(D835H) [7]: 0 | KINOMEscan MKNK2 [8]: 0 | KINOMEscan RET(M918T) [9]: 0 | KINOMEscan ROCK1 [10]: 0 | KINOMEscan PFPK5(P.falciparum) [11]: 0 | KINOMEscan CDK17 [12]: 1 | KINOMEscan HIPK2 [13]: 33

Cc1cccc(-c2nc(N(C)c3ccc4ncsc4c3)c3ccccc3n2)n1 [NK-161]
KINOMEscan EPHA7 [1]: 0 | KINOMEscan ABL1(F317L)-nonphosphorylated [2]: 18 | KINOMEscan ABL1(F317L)-phosphorylated [2]: 0 | KINOMEscan CHUK/IKK-alpha [3]: 20 | KINOMEscan MAP3K11 [4]: 0 | KINOMEscan BLK [5]: 0 | KINOMEscan MYO3B [6]: 1 | KINOMEscan FLT3(D835H) [7]: 4 | KINOMEscan MKNK2 [8]: 0 | KINOMEscan RET(M918T) [9]: 15 | KINOMEscan ROCK1 [10]: 12 | KINOMEscan PFPK5(P.falciparum) [11]: 0 | KINOMEscan CDK17 [12]: 0 | KINOMEscan HIPK2 [13]: 28

— publication PMC9851200, “Multiparameter phenotypic screening for endogenous TFEB and TFE3 translocation identifies novel chemical series modulating lysosome function” (Autophagy, 2022)
